According to patent publication US9115143B2, “Substituted indole derivatives as gamma secretase modulators” (Janssen Pharmaceuticals, Inc., priority 2011, dated 2015):

Assays:
[1] = tested on: Aβ42; assay: Screening for γ-secretase-modulating activity: Aβ42 in supernatant of SKNBE2 cells carrying hAPP 695 wild type (Alphalisa); assay type: cell-based, human; conditions: overnight incubation, Alphalisa on supernatant
Experimental: (§1) Pharmacology A) Screening of the Compounds of the Invention for γ-Secretase-Modulating Activity
(§2) Screening was carried out using SKNBE2 human neuroblastoma cells carrying the hAPP 695—wild type, grown in Dulbecco's Modified Eagle's Medium/Nutrient mixture F-12 (DMEM/NUT-mix F-12) (HAM) provided by Invitrogen (cat no. 10371-029) containing 5% Serum/Fe supplemented with 1% non-essential amino acids, 1-glutamine 2 mM, Hepes 15 mM, penicillin 50 U/mL (units/mL) en streptomycin 50 μg/mL. Cells were grown to near confluency.
(§3) The screening was performed using a modification of the assay as described in Citron et al (1997) Nature Medicine 3: 67. Briefly, cells were plated in a 384-well plate at 10^4 cells/well in Ultraculture (Lonza, BE12-725F) supplemented with 1% glutamine (Invitrogen, 25030-024), 1% non-essential amino acid (NEAA), penicillin 50 U/mL en streptomycin 50 μg/mL in the presence of test compound at different test concentrations. The cell/compound mixture was incubated overnight at 37° C., 5% CO2. The next day the media were assayed by two sandwich immuno-assays, for Aβ42 and Aβtotal.
(§4) Aβtotal and Aβ42 concentrations were quantified in the cell supernatant using the Aphalisa technology (Perkin Elmer). Alphalisa is a sandwich assay using biotinylated antibody attached to streptavidin coated donorbeads and antibody conjugated to acceptor beads. In the presence of antigen, the beads come into close proximity. The excitation of the donor beads provokes the release of singlet oxygen molecules that trigger a cascade of energy transfer in the acceptor beads, resulting in light emission. To quantify the amount of Aβ42 in the cell supernatant, monoclonal antibody specific to the C-terminus of Aβ42 (JRF/cAβ42/26) was coupled to the receptor beads and biotinylated antibody specific to the N-terminus of Aβ (JRF/AβN/25) was used to react with the donor beads. To quantify the amount of Aβ total in the cell supernatant, monoclonal antibody specific to the N-terminus of Aβ (JRF/AβN/25) was coupled to the receptor beads and biotinylated antibody specific to the mid region of Aβ (biotinylated 4G8) was used to react with the donor beads.
(§5) To obtain the values reported in Table 3, the data are calculated as percentage of the maximum amount of amyloid Beta 42 measured in the absence of the test compound. The sigmoidal dose response curves were analyzed using nonlinear regression analysis with percentage of the control plotted against the log concentration of the compound. A 4-parameter equation was used to determine the IC50.

[2] = tested on: Aβtotal; assay: Screening for γ-secretase-modulating activity: Aβtotal in supernatant of SKNBE2 cells carrying hAPP 695 wild type (Alphalisa); assay type: cell-based, human; conditions: overnight incubation, Alphalisa on supernatant
Experimental: as §1, §2, §3, §4, §5

[3] = SKNBE2 human neuroblastoma cells carrying hAPP 695 wild type
[4] = Homo sapiens, SKNBE2, SKNBE2 human neuroblastoma cells carrying hAPP 695 wild type

IC50 [1, 3] [nM]	IC50 [2, 3] [nM]	IC50 [2, 4] [nM]	IC50 [1, 4] [nM]	Compound
2340	> 10000	–	–	COc1c(C#N)ccc2[nH]c(-c3nc4n(n3)CCCOC4c3ccc(F)cc3C)cc12 (stereo not shown) [Compound 54, 2-[9-(4-fluoro-2-methylphenyl)-6,7-dihydro-5H,9H-[1,2,4]triazolo[5,1-c][1,4]oxazepin-2-yl]-4-methoxy-1H-indole-5-carbonitrile]
141	–	> 10000	–	Cc1cn(-c2ccc3[nH]c(-c4nc5n(n4)CCCC5c4ccc(F)cc4C)cc3c2)cn1 (single isomer, unassigned) [Compound 76, 8-(4-fluoro-2-methylphenyl)-5,6,7,8-tetrahydro-2-[5-(4-methyl-1H-imidazol-1-yl)-1H-indol-2-yl]-[1,2,4]triazolo[1,5-a]pyridine]
48	5370	–	–	COc1c(-n2cnc(C)c2)ccc2[nH]c(-c3nc4n(n3)CCCC4c3ccc(F)cc3C)cc12 (single isomer, unassigned) [Compound 84, 8-(4-fluoro-2-methylphenyl)-5,6,7,8-tetrahydro-2-[4-methoxy-5-(4-methyl-1H-imidazol-1-yl)-1H-indol-2-yl]-[1,2,4]triazolo[1,5-a]pyridine]
–	–	> 10000	87	N#Cc1ccc2[nH]c(-c3cn4c(n3)C(c3ccccc3C(F)(F)F)CCC4)cc2c1 (stereo not shown) [Compound 17, 2-[5,6,7,8-tetrahydro-8-[2-(trifluoromethyl)phenyl]imidazo[1,2-a]pyridin-2-yl]-1H-indole-5-carbonitrile]
123	–	> 10000	–	COCc1ccccc1C1OCCn2cc(-c3cc4c(OC)c(C#N)ccc4[nH]3)nc21 (stereo not shown) [Compound 120, 2-[5,6-dihydro-8-[2-(methoxymethyl)phenyl]-8H-imidazo[2,1-c][1,4]oxazin-2-yl]-4-methoxy-1H-indole-5-carbonitrile]
–	–	> 10000	316	Cc1cc(F)ccc1C1CCCn2nc(-c3cc4cc(C#N)ncc4[nH]3)nc21 (stereo not shown) [Compound 68, 2-[8-(4-fluoro-2-methylphenyl)-5,6,7,8-tetrahydro[1,2,4]triazolo[1,5-a]pyridin-2-yl]-1H-pyrrolo[2,3-c]pyridine-5-carbonitrile]
–	–	> 10000	355	CCc1cc(F)ccc1C1OCCn2nc(-c3cc4cc(C#N)ccc4[nH]3)nc21 (stereo not shown) [Compound 95, 2-[8-(2-ethyl-4-fluorophenyl)-5,6-dihydro-8H-[1,2,4]triazolo[5,1-c][1,4]oxazin-2-yl]-1H-indole-5-carbonitrile]
21	–	> 10000	–	COc1c(-n2cnc(C)c2)ccc2[nH]c(-c3cn4c(n3)C(c3ccc(F)cc3C)OCC4)cc12 (single isomer, unassigned) [Compound 112, 8-(4-fluoro-2-methylphenyl)-5,6-dihydro-2-[4-methoxy-5-(4-methyl-1H-imidazol-1-yl)-1H-indol-2-yl]-8H-imidazo[2,1-c][1,4]oxazine]
79	–	> 10000	–	COc1c(C#N)ccc2[nH]c(-c3nc4n(n3)CCOC4c3ccccc3Cl)cc12 (stereo not shown) [Compound 130, 2-[8-(2-chlorophenyl)-5,6-dihydro-8H-[1,2,4]triazolo[5,1-c][1,4]oxazin-2-yl]-4-methoxy-1H-indole-5-carbonitrile]
251	–	> 10000	–	Cc1cc(F)ccc1C1OCCn2nc(-c3cc4c(OC(C)C)c(C#N)ccc4[nH]3)nc21 (single isomer, unassigned) [Compound 173, 2-[8-(4-fluoro-2-methylphenyl)-5,6-dihydro-8H-[1,2,4]triazolo[5,1-c][1,4]oxazin-2-yl]-4-(1-methylethoxy)-1H-indole-5-carbonitrile]
52	> 10000	–	–	COc1c(C#N)ccc2[nH]c(-c3nc4n(n3)CCOC4c3c(F)cccc3C(F)(F)F)cc12 (stereo not shown) [Compound 163, 2-[8-[2-fluoro-6-(trifluoromethyl)phenyl]-5,6-dihydro-8H-[1,2,4]triazolo[5,1-c][1,4]oxazin-2-yl]-4-methoxy-1H-indole-5-carbonitrile]
74	> 10000	–	–	COc1ccccc1C1CCCn2nc(-c3cc4cc(-n5cnc(C)c5)ccc4[nH]3)nc21 (single isomer, unassigned) [Compound 81, 5,6,7,8-tetrahydro-8-(2-methoxyphenyl)-2-[5-(4-methyl-1H-imidazol-1-yl)-1H-indol-2-yl]-[1,2,4]triazolo[1,5-a]pyridine]
2820	> 10000	–	–	COc1c(C#N)ccc2[nH]c(-c3cn4c(n3)C(c3c(F)cccc3Cl)OCC4)cc12 (single isomer, unassigned) [Compound 123, 2-[8-(2-chloro-6-fluorophenyl)-5,6-dihydro-8H-imidazo[2,1-c][1,4]oxazin-2-yl]-4-methoxy-1H-indole-5-carbonitrile]
–	–	> 10000	437	Cc1ccc(C(F)(F)F)cc1C1CCCn2nc(-c3cc4cc(C#N)cnc4[nH]3)nc21 (stereo not shown) [Compound 3, 2-[5,6,7,8-tetrahydro-8-[2-methyl-5-(trifluoromethyl)phenyl][1,2,4]triazolo[1,5-a]pyridin-2-yl]-1H-pyrrolo[2,3-b]pyridine-5-carbonitrile]
40	> 10000	–	–	COCc1ccccc1C1CCCn2nc(-c3cc4c(OC)c(C#N)ccc4[nH]3)nc21 (stereo not shown) [Compound 90, 4-methoxy-2-[5,6,7,8-tetrahydro-8-[2-(methoxymethyl)phenyl][1,2,4]triazolo[1,5-a]pyridin-2-yl]-1H-indole-5-carbonitrile]
60	–	> 10000	–	COc1c(C#N)ccc2[nH]c(-c3cn4c(n3)C(c3cc(C(F)(F)F)ccc3F)OCC4)cc12 (stereo not shown) [Compound 128, 2-[8-[2-fluoro-5-(trifluoromethyl)phenyl]-5,6-dihydro-8H-imidazo[2,1-c][1,4]oxazin-2-yl]-4-methoxy-1H-indole-5-carbonitrile]
603	> 10000	–	–	COc1c(C#N)ccc2[nH]c(-c3nc4n(n3)CCOC4c3ccccc3C(F)(F)F)cc12 (single isomer, unassigned) [Compound 57, 2-[5,6-dihydro-8-[2-(trifluoromethyl)phenyl]-8H-[1,2,4]triazolo[5,1-c][1,4]oxazin-2-yl]-4-methoxy-1H-indole-5-carbonitrile]
3800	> 10000	–	–	COc1c(C#N)ccc2[nH]c(-c3cn4c(n3)C(c3c(F)cccc3C(F)(F)F)OCC4)cc12 (stereo not shown) [Compound 152, 2-[8-[2-fluoro-6-(trifluoromethyl)phenyl]-5,6-dihydro-8H-imidazo[2,1-c][1,4]oxazin-2-yl]-4-methoxy-1H-indole-5-carbonitrile]
46	–	> 10000	–	COc1c(C#N)ccc2[nH]c(-c3nc4n(n3)CCOC4c3c(C)cccc3F)cc12 (stereo not shown) [Compound 129, 2-[8-(2-fluoro-6-methylphenyl)-5,6-dihydro-8H-[1,2,4]triazolo[5,1-c][1,4]oxazin-2-yl]-4-methoxy-1H-indole-5-carbonitrile]
372	> 10000	–	–	COc1c(C#N)ccc2[nH]c(-c3cn4c(n3)C(c3ccccc3C(F)(F)F)OCC4)cc12 (single isomer, unassigned) [Compound 45, 2-[5,6-dihydro-8-[2-(trifluoromethyl)phenyl]-8H-imidazo[2,1-c][1,4]oxazin-2-yl]-4-methoxy-1H-indole-5-carbonitrile]
3800	> 10000	–	–	COc1c(C#N)ccc2[nH]c(-c3nc4n(n3)CCOC4c3c(F)cccc3Cl)cc12 (single isomer, unassigned) [Compound 118, 2-[8-(2-chloro-6-fluorophenyl)-5,6-dihydro-8H-[1,2,4]triazolo[5,1-c][1,4]oxazin-2-yl]-4-methoxy-1H-indole-5-carbonitrile]
468	–	> 10000	–	COc1ccccc1C1CCCn2nc(-c3cc4cc(-n5cnc(C)c5)ccc4[nH]3)nc21 (single isomer, unassigned) [Compound 80, 5,6,7,8-tetrahydro-8-(2-methoxyphenyl)-2-[5-(4-methyl-1H-imidazol-1-yl)-1H-indol-2-yl]-[1,2,4]triazolo[1,5-a]pyridine]
14	2340	–	–	COc1c(-n2cnc(C)c2)ccc2[nH]c(-c3nc4n(n3)CCCC4c3ccc(F)cc3C)cc12 (single isomer, unassigned) [Compound 83, 8-(4-fluoro-2-methylphenyl)-5,6,7,8-tetrahydro-2-[4-methoxy-5-(4-methyl-1H-imidazol-1-yl)-1H-indol-2-yl]-[1,2,4]triazolo[1,5-a]pyridine]
